Marks after values point to notes of the source that are not given here. One block for each compound: values may come before it.
Legend:
skin of a hairless mouse = experiment: First screening for promoting keratolysis (silver acetate blackened skin, closed patch); format: in vivo; parameters: key to Discoloration (keratolysis effect): ++: significant discoloration; +: discoloration; ±: slight discoloration; −: no change; details: for Appearance of Exfoliation: hairless mouse, closed patch about 24 hr; for Discoloration (keratolysis effect): positive control 2 wt % (pH 4)
Protocol: All skin cells help to maintain skin homeostasis through suitable metabolic processes by controlling the rate of their proliferation and exfoliation. Therefore, the reproduction rate of skin could be indirectly examined by observing the exfoliation rate of stratum corneum that can be generally measured by evaluating the level of skin discoloration associated with keratolysis. In evaluating the efficacy of extracts, the first screening for promoting keratolysis was performed using hairless mouse. Each extract sample was prepared by dissolving the dried powder extract prepared in Example 1 in 70% ethanol and the positive controls including glycolic acid or lactic acid were prepared as described above. The experiments were carried out as follows: The skin of a hairless mouse was washed with 10% SDS for 30 min and then allowed its skin to dry for experiment. 0.4 ml of aqueous silver acetate liquid was covered with a hill top chamber and closed patch was performed for 30 min, followed by infiltrating with a photo-developing solution to blacken a portion of patch with silver acetate. The closed patch was further performed with each extract sample on the blackened portion and removed after about 24 hr. The coloring index before application of extract and discoloring index at 24 hr after removal were measured by means of calorimeter (The higher the discoloring index, the higher is the keratolysis effect)

carrageenan foot edema = experiment: Carrageenan foot edema method using SD rat; format: in vivo; details: 30 mg/kg intraperitoneally, 1 hr before carrageenan; foot volume change at 4 hr
Protocol: The extracts from Cavalia gladiata, Biota orientalis, Coptis chinensis and their mixture prepared in Example 1 were intraperitoneally administered, respectively, in an amount of 30 mg/kg. After 1 hr, 0.5 ml of 0.1% carrageenan solution was injected into the sole of a back foot to induce inflammation. The volume change of rat foot at the time of injection of carrageenan and 4-hr after administration was measured and the Inhibitory rate was calculated according to the Formula 3. Inhibitory rate (%)=[(1−ΔVtreated group)/ΔVcontrol group)]×100 (ΔV: volume change of foot) Formula 3

Propionibacterium acnes = experiment: Antimicrobial activity against acne pathogen (agar medium, anaerobic culture, colony count); format: cell-based; parameters: key: −: inhibition of growth; ±: pseudo-positive; +: positive
Protocol: The examination on antimicrobial activity of three extracts (Cavalia gladiata, Biota orientalis and Coptis chinensis) was performed in such a manner that an acne pathogen (Propionibacterium acnes) that was cultured in liquid medium was treated with a predetermined concentration of extract powderized by freeze drying and then cultured in an anaerobic incubator, followed by measuring a minimum inhibitory concentration (MIC) against an acne pathogen (Propionibacterium acnes). The overall procedure is as follows:
The acne pathogen (Propionibacterium acnes) was cultured at 37° C. for 3 days in reinforced clostridial medium and then continued to subculture until showing significant activity.
First, in a liquid culture method, 10 ml of reinforced clostridial medium were introduced to screw cap tube and sterilized for 20 min at 121° C. After sterilization, 0.5 ml of liquid paraffin sterilized separately was added dropwise on the liquid medium to protect the contact with oxygen. After cooling the medium, the microbe was inoculated into the medium and cultured at 37° C. for above 72 hr.
Second, in a solid culture method, 10 ml of the solid medium prepared by adding 0.1% agar to reinforced clostridial medium was introduced to a screw cap tube and sterilized at 121° C. for 20 min. After cooling the medium, the microbe was inoculated into the medium by use of inoculating platinum loop and stab-cultured for 72 hr at 37° C.
Third, in a plate culture method, the agar medium prepared and sterilized as a solid culture method was poured to a plate and cooled. After cooling and solidifying completely, the plate was placed in an anaerobic jar, 10 ml of water were introduced to complex gas (CO2 10.5%, H2 9.6%, N2 79.9%) and the lid was kept covered, followed by culturing at 37° C. for 72 hr.
1 ml of the medium containing Propionibacterium acnes subjected to a sufficient subculture was taken and inoculated into a medium containing 9 ml of reinforced clostridial medium, thereby obtaining 10-fold diluted culture medium. The same procedure was repeated to obtain between 10^−1 and […] diluted culture media. Each of the homogeneous solutions containing Cavalia gladiata, Biota orientalis, Coptis chinensis and at least two combinations thereof was well dissolved in 10 ml of 70% ethanol to obtain 2-fold diluted solution. The solution was filtered for removing bacteria through 0.2 μm membrane filter. […] 1 ml of the diluted medium (medium of Propionibacterium acnes subject to subculture diluted to 10^−1-10^−5) was dispensed in a petri dish and each agar medium having certain concentration was dispensed, followed by mixing and keeping it to stand for solidifying the agar medium. After solidification, the medium was placed in an anaerobic jar that in turn was equipped with gas-pak. Following culturing at 37° C. for 3 days, the number of colonies formed were counted and compared to that of a control group, and the inhibitory rate was calculated based on the results.

mouse ear edema = experiment: Balb.c ear edema test; format: in vivo, Balb.c mouse; details: 0.3 mg/ear topically at 15 min and 6 hr after induction; 24 hr
Protocol: To examine anti-inflammatory effect of the extracts, irritation-inducing substances, 5.0% benzalkonium chloride, 2.5% coroton oil and 3000 iu/g retinoic acid (negative control) were dissolved in 70% ethanol solution and its 0.3 mg/ear was topically applied to mouse ear (6 mice per group) in order to induce edema. At 15 min and 6 hr after induction of edema, respectively, each of the extract and controls (0.3 mg/ear) was topically applied to mouse ear. After 24 hr of application of irritation-inducing substances, the applied portion of the mouse was cut off with a punch and its weight was weighted. The edema extent was evaluated based on the mean value from the measurements with micrometer.
Inhibitory rate (%)=[(A−B)/A]×100 Formula 4
A: mean value of ear thickness of control group (ear thickness after treatment of negative control−ear thickness with no treatment)
B: ear thickness of sample group (ear thickness after treatment of sample−ear thickness with no treatment)

comedo of rabbit ear [1] = experiment: Alleviatory effect on comedo using ear of white rabbit, observation with image analysis; format: in vivo, New Zealand white male rabbits
From the text: (§1) Test system—This test has been generally adopted for evaluation of treatment. New Zealand white male rabbits aged at 4-month and weighed 2-3 kg were purchased and mitigated for 1 week, of which only the healthy ones determined with naked eye were selected.
(§2) Test materials—For test groups, the powderized extracts (0.1% (w/v)) from Cavalia gladiata, Biota orientalis, Coptis chinensis and their mixture dissolved in 70% ethanol solution were used, respectively, 1.0% azelaic acid dissolved in 70% ethanol solution was used as a positive control and 70% ethanol solution per se was used as negative control.
(§3) Classification of test systems—Isopropyl myriatate (Sigma) was daily applied to both ears of rabbit for 2 weeks for inducing comedo. Rabbits observed with naked eye to show typical comedo were selected and classified to groups each of which was comprised of 6 rabbits in consideration of comedo severity.
(§4) Administration method of test materials—Test groups and a positive control to the right ear and a negative control to the left ear of rabbit were administered once daily for 2 weeks in the amount of 0.5 ml and spread with a swab. After 2 weeks, both ears were evaluated.
After the observation with naked eye, each test group was euthanized with sodium pentobarbital and its both ears were cut out, after which their tissues at basement were cleaved in a size of about 2.5×1.5 cm and immersed in warm water (50° C.) for 3 min. The epiderms from the tissues were detached, placed with inner side upward on slide glass, fixed and dried at room temperature.

comedo of rabbit ear [2] = experiment: Alleviatory effect on comedo using ear of white rabbit, observation with naked eye; format: in vivo, New Zealand white male rabbits
From the text: as §1, §2, §3, §4
The standards for determination with naked eye were classified to 7 grades, 0, 0.5, 1.0, 1.5, 2.0, 2.5 and 3.0. The area of comedo was evaluated. The period for treatment of comedo was 2-week and the aggravation and alleviation of comedo were determined.
• 0: no difference compared to control • […]: symptoms between 0 and 1 • 1: showing congestion, bleeding of capillary tube, slight cornification and enlargement of hair follicle • 1.5: symptoms between 1 and 2 • 2: medium severity of cornification and enlargement of hair follicle • 2.5: symptoms between 2 and 3 • 3: excessive severity of cornification and enlargement of hair follicle, showing typical comedo

[3] = molecular target: T1, Testosterone 5α-Reductase (Rattus norvegicus, UniProt P24008); experiment: Inhibitory effect on testosterone 5α-reductase activity (rat liver enzyme, (3H) testosterone, TLC); format: biochemical, Sprague-Dawley rat
T1 construct: from tissue; host or cells: liver of 8-week-old female Sprague-Dawley rat (homogenate, sonicated and centrifuged)
T1 sequence (P24008 1-259): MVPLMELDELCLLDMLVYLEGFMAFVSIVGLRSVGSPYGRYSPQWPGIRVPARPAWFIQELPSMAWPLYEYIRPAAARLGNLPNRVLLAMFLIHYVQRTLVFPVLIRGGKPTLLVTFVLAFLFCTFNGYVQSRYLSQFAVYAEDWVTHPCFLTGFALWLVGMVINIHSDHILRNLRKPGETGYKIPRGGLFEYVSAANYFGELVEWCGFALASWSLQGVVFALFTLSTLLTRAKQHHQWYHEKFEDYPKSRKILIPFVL
Protocol: Testosterone 5α-Reductase, used to examine the inhibitory effect of the extract obtained from oriental medicines against testosterone 5α-reductase activity, was prepared at a temperature of below 4° C. The white female Sprague-Dawley rat aged at 8 weeks was anesthetized by inhalation of diethylether and sacrificed by the disjunction of cervicals, followed by liver ablation. The extracted liver was washed three times with PBS (phosphate buffered saline) and 3 volumes of ice-cold buffer (50 mM sodium phosphate, pH 6.8, 0.25 M sucrose, 1 mM dithiothreitol) were added, followed by pulverizing with a cell homogenizer (Polytron Homogenizer), obtaining homogenized suspension. […] The protein quantification of the protein suspension obtained thus was performed according to Bradford method and its accurate value was determined with ELISA reader.
For evaluating the inhibitory effect on the activity of 5α-Reductase, to 50 μl of the reaction solution, 10 μl of ethanol solution of inhibitor or tested sample (70% ethanol solution containing extract from oriental medicine) were added and the protein suspension was added to the volume of 100 μl of the reaction solution. […] The area exposed was measured with densitometer and the inhibitory rate against testosterone 5α-Reductase was calculated as shown in the below formula 1. […]

[4] = extracts 0.1% (w/v), azelaic acid 1.0%, 2 weeks

Structure (SMILES): CC(O)C(=O)O (stereo not drawn) [Lactic acid]
Appearance of Exfoliation (skin of a hairless mouse): Heterogeneous
Discoloration (keratolysis effect) (skin of a hairless mouse): 2 wt % (pH 4) ++

Structure (SMILES): CC(=O)Oc1ccccc1C(=O)O [Aspirin]
Inhibitory rate (%) of foot edema (carrageenan foot edema): 35.2 ± 6%

Structure (SMILES): O=C(O)CO [Glycolic acid]
Appearance of Exfoliation (skin of a hairless mouse): Heterogeneous
Discoloration (keratolysis effect) (skin of a hairless mouse): 2 wt % (pH 4) ++

MIC to P. acnes (growth at concentration of extract) (Propionibacterium acnes; Concentration of extract 0.005 %): +
MIC to P. acnes (growth at concentration of extract) (Propionibacterium acnes; Concentration of extract 0.01 %): +
MIC to P. acnes (growth at concentration of extract) (Propionibacterium acnes; Concentration of extract 0.03 %): +
MIC to P. acnes (growth at concentration of extract) (Propionibacterium acnes; Concentration of extract 0.05 %): +***
MIC to P. acnes (growth at concentration of extract) (Propionibacterium acnes; Concentration of extract 0.10 %): ±**
MIC to P. acnes (growth at concentration of extract) (Propionibacterium acnes; Concentration of extract 0.50 %): −
Structure (SMILES): O=C(OOC(=O)c1ccccc1)c1ccccc1 [Benzoylperoxide]

Structure (SMILES): COc1ccc2c(c1)c(CC(=O)O)c(C)n2C(=O)c1ccc(Cl)cc1 [Indomethacin]
Inhibitory rate on ear thickness (%) (mouse ear edema): 52.0%
Inhibitory rate on ear weight (%) (mouse ear edema): 45.6%

Structure (SMILES): CC1(C)[C@@H](O[C@H]2O[C@H](C(=O)O)[C@@H](O)[C@H](O)[C@H]2O[C@@H]2O[C@H](C(=O)O)[C@@H](O)[C@H](O)[C@H]2O)CC[C@]2(C)[C@H]3C(=O)C=C4[C@@H]5C[C@@](C)(C(=O)O)CC[C@]5(C)CC[C@@]4(C)[C@]3(C)CC[C@@H]12 [Glycyrrhizinic acid]
Inhibitory rate on ear thickness (%) (mouse ear edema): 42.7%
Inhibitory rate on ear weight (%) (mouse ear edema): 38.4%

Inhibitory rate against 5α-reductase (%) ([3]; Conc. 0.1 %): 19.8%
Inhibitory rate against 5α-reductase (%) ([3]; Conc. 1.0 %): 100.0%
Structure (SMILES): O=C(O)CCCCCCCC(=O)O [Azelaic acid]
Inhibitory rate (%), area of comedo/number (comedo of rabbit ear [1]; [4]): 40.0%
After administration (right ear) Area of comedo/number (cm^2) (comedo of rabbit ear [1]; image analysis, extracts 0.1% (w/v), azelaic acid 1.0%, once daily for 2 weeks): 0.18 ± 0.02 cm^2
Before administration (left ear) Area of comedo/number (cm^2) (comedo of rabbit ear [1]; image analysis, left ear): 0.30 ± 0.02 cm^2
comedo decreasing ratio (area/count ratio) (comedo of rabbit ear [1]; text restating Table 11): 40.0%
Inhibitory rate (%), naked eye comedo grade (comedo of rabbit ear [2]; [4]): 28.5%
After administration (right ear), naked eye comedo grade (comedo of rabbit ear [2]; grades 0-3, extracts 0.1% (w/v), azelaic acid 1.0%, 0.5 ml once daily for 2 weeks): 1.13 ± 0.14
Before administration (left ear), naked eye comedo grade (comedo of rabbit ear [2]; grades 0-3, left ear): 1.58 ± 0.12
